The data set in a line: in vitro. The settings on record: human, hela cells, % viability.

On to `OC1CSc2nc(-c3cnccn3)nn2C1` (stereo not drawn) [CBK027096], for which the viability at 28.5 h, 10 µM was found to be 97.8%.
With `Nc1nc(N)c2nc(C3OCCO3)cnc2n1` [CBK027115], the viability at 28.5 h, 10 µM was determined as 114%.
Regarding `CNCCc1csc2ccccc12` [CBK027127C], the viability at 28.5 h, 10 µM (bulk resorufin, single well) was 118%.
`CNC(C)Cc1ccccc1Sc1ccccc1` (stereo not drawn) [CBK027167G]: the viability at 28.5 h, 10 µM was determined as 98%.
With `CN1C(c2ccccc2)=NO[C@]1(C)c1ccccc1` [CBK027170], the viability at 28.5 h, 10 µM came to 90%.
In the case of `Brc1cnn(-c2ccccc2)c1` [CBK027172], the viability at 28.5 h, 10 µM stood at 87.6%.
Take `CCOC(=O)C1=C(C)N(CCO)C(=O)NC1c1ccccc1Br` (stereo not drawn) [CBK027192]: the viability at 28.5 h, 10 µM was found to be 104%.
On the same count and under the same terms, with `CCOC(NC(=O)Nc1ccc(Br)cc1)(C(F)(F)F)C(F)(F)F` [CBK027208] the figure was 91.2%.
On to `Cc1n[nH]c(C)c1CCCCCOc1ccccc1` [CBK027211C], for which the viability at 28.5 h, 10 µM amounted to 84.3%.
The same measure, in the same setting: the figure for `CC1(C(=O)O)CCCC2(C)c3cc(O)ccc3CCC12` (stereo not drawn) [CBK027214] is 97.4%; for `Cc1ccc(S(=O)(=O)Nn2cnnc2)cc1` [CBK027263] it is 108%; for `CSc1nsc(NC(=O)Nc2ccccc2)n1` [CBK027286] it is 97.9%.
Regarding `c1csc(CN2CCNCC2)c1` [CBK027324], the viability at 28.5 h, 10 µM was 105%.
Take `O=C(Nc1cccc(C(F)(F)F)c1)c1nc[nH]n1` [CBK027341]: the viability at 28.5 h, 10 µM was determined as 89.4%.
Turning to `CCN(CC)c1nc2n(c(=O)n1)CCN2CC` [CBK027342], the viability at 28.5 h, 10 µM is 94.9%.
Still for that read-out and setting: with `CC(C)=NNC(=O)Nc1nonc1N` [CBK027368] the figure was 99.2%.
With `CCOc1nc(NCCC2=CCCCC2)nc(OCC)n1` [CBK027387], the viability at 28.5 h, 10 µM turned out to be 86.9%.
For `Nc1nc(-c2ccccc2I)n[nH]1` [CBK027413], the viability at 28.5 h, 10 µM stood at 93.4%.
In the case of `Cc1c(NC(=O)Nc2ccccc2)sc(=S)n1C` [CBK027434], the viability at 28.5 h, 10 µM worked out at 90.6%.
Same read-out and setting: with `CCOc1cc(C(=S)N2CCOCC2)ccc1OCc1ccccc1` [CBK027466] the figure was 99.1%; with `O=C(CSc1nnc(COc2ccc(Br)cc2)o1)OC1CCCCC1` [CBK027482], 88.8%.
For `Cc1c(NC(=O)Nc2ccc(Cl)cc2)sc(=S)n1C` [CBK027495], the viability at 28.5 h, 10 µM was 93.4%.
As to `CCN(CC)C(=O)N1CCN(CCC#N)CC1` [CBK027538], the viability at 28.5 h, 10 µM was determined as 94.9%.
The same measure, in the same setting: the figure for `Clc1ccc(-c2c[nH]cn2)cc1` [CBK027542] is 111%; for `CN(CCOC(=O)c1cccnc1)C(C)(C)C` [CBK027543C] it is 88.8%.
On the same count and under the same terms, with `Cc1cc2nc(SCCO)[nH]c2cc1C` [CBK027546] the figure was 94.1%; with `Oc1ccccc1C(=S)N1CCCCC1` [CBK027552], 92.8%.
On the same count and under the same terms, with `NC(=O)c1c[nH]c2ccccc12` [CBK027556] the figure was 80.7%.
For the compound `CC(C)(C)c1ccc(OCC(=O)Nn2cnnc2)cc1` [CBK027576], the viability at 28.5 h, 10 µM amounted to 90.3%.
Take `CC(C)OC(=O)c1nnn(-c2nonc2N)c1CN1CCCCCC1` [CBK027601]: the viability at 28.5 h, 10 µM is 94%.
With `COc1ccc(Nc2nc(Cl)nc(NCCN3CCOCC3)n2)cc1` [CBK027610], the viability at 28.5 h, 10 µM stood at 104%.
Still for that read-out and setting: the figure for `Brc1ccc(CN2CCN(Cc3c[nH]c4ccccc34)CC2)cc1` [CBK027622] is 85.4%.
`Cc1nc(C)c(C(=O)c2coc3ccc(O)cc23)o1` [CBK027631]: the viability at 28.5 h, 10 µM worked out at 94.1%.
In the case of `O=C(CN1CCCCC1)Nc1cccc(-n2cnnn2)c1` [CBK027661], the viability at 28.5 h, 10 µM was 105%.
Still for that read-out and setting: the figure for `Cn1c(=O)c(-c2nc3ccccc3[nH]2)c(O)c2ccccc21` [CBK027678] is 92.7%; for `c1ccc(SCCN2CCOCC2)cc1` [CBK027679] it is 97.8%; for `O=c1nc(C(F)(F)F)n2ccccc2n1` [CBK027683] it is 97.2%.
The same measure, in the same setting: the figure for `Brc1ccc(-n2cnnn2)cc1` [CBK027696] is 110%; for `NCC1OCCc2ccccc21` (stereo not drawn) [CBK027717] it is 108%; for `CCCCCC1=NN(C(=O)OCC)C(O)(C(F)(F)F)C1` (stereo not drawn) [CBK027739] it is 94.9%.
As to `Cc1ccc(SCc2nc3ncccn3c2Br)cc1` [CBK027744], the viability at 28.5 h, 10 µM is 85.2%.
With `CC(=O)NC(O)C(=O)c1cccs1` (stereo not drawn) [CBK027756], the viability at 28.5 h, 10 µM came out at 111%.
As for `S=c1[nH]cnc2sc3c(c12)CCCC3` [CBK027787], the viability at 28.5 h, 10 µM amounted to 73.7%.
Take `Cc1n[nH]c(C)c1Sc1nnc(O)nc1O` [CBK027833]: the viability at 28.5 h, 10 µM was determined as 87.2%.
Still for that read-out and setting: the figure for `N#Cc1ccccc1CSc1ncn[nH]1` [CBK027835] is 95.1%; for `CCCCOC(=O)CCNc1n[nH]c(=O)[nH]c1=O` [CBK027838] it is 97.3%; for `CCOC(=O)Nc1ccsc1C(=O)OC` [CBK027880] it is 88.6%.
On the same count and under the same terms, the figure for `O=C(O)c1cc(-c2ccco2)nc2ccccc12` [CBK027882] is 98.3%; for `Cc1nnc(N/N=C\c2c(Cl)cccc2Cl)[nH]c1=O` [CBK027921] it is 110%.
Regarding `C(=N\N1CCOCC1)/c1cccs1` [CBK027942], the viability at 28.5 h, 10 µM is 96.9%.
Same read-out and setting: with `CC(NCC(O)COCc1ccc(Cl)cc1)c1ccccc1` (stereo not drawn) [CBK027972C] the figure was 87.5%; with `O=C(O)C1CCC(CNS(=O)(=O)c2ccc(Br)cc2)CC1` (stereo not drawn) [CBK027994], 86.1%.
On to `FC(F)Oc1ccc(NC(=S)NCCN2CCOCC2)cc1` [CBK028000], for which the viability at 28.5 h, 10 µM was 87.7%.
As to `CN(C)C(c1ccccc1)c1nnnn1C1CCCCC1` (stereo not drawn) [CBK028032], the viability at 28.5 h, 10 µM is 105%.
In the case of `CCCN(c1nc(C)c(Br)c(OC)n1)S(=O)(=O)c1ccc(C)cc1` [CBK028072], the viability at 28.5 h, 10 µM is 105%.
Same read-out and setting: the figure for `CNc1nc(N)nc(OCC(F)(F)F)n1` [CBK028082] is 89.4%.
The same measure, in the same setting: the figure for `CC(C)C(=O)N1N=C2CCCCC2C1(O)C(F)(F)F` (stereo not drawn) [CBK028091] is 93.2%; for `CCOC(=O)c1c(C)nc(-c2ccccc2)nc1NC(=O)C(C)C` [CBK028118] it is 90.1%.
Still for that read-out and setting: with `COc1ccc(C(CNCC(O)COc2cccc3c2CCCC3)c2ccccc2)cc1` (stereo not drawn) [CBK028144] the figure was 105%; with `CC#CC1CCCC2N(c3ccccc3)CCN12` (stereo not drawn) [CBK028191], 119%; with `CCOC(=O)Nc1ccc2ccccc2n1` [CBK028207], 87.3%.
For the compound `O=C(CCCc1ccccc1)Nc1cccnc1N1CCNCC1` [CBK028256T], the viability at 28.5 h, 10 µM was 93.1%.
The same measure, in the same setting: with `O=C(Cc1c[nH]c2ccccc12)Nc1cccnc1N1CCNCC1` [CBK028265T] the figure was 105%; with `Cn1cc(CC(=O)Nc2ccc(N3CCNCC3)nc2)c2ccccc21` [CBK028275T], 72.1%; with `O=C(COc1ccccc1)Nc1ccccc1N1CCNCC1` [CBK028279T], 108%.
As to `O=C(Nc1ccccc1N1CCNCC1)C1(c2ccccc2)CCCCC1` [CBK028281T], the viability at 28.5 h, 10 µM is 99.9%.
Same read-out and setting: with `COc1ccc(CCCC(=O)Nc2ccccc2N2CCNCC2)cc1OC` [CBK028283T] the figure was 107%; with `O=C(CCS(=O)(=O)c1ccccc1)Nc1ccccc1N1CCNCC1` [CBK028285T], 99.8%.
Still for that read-out and setting: the figure for `O=C(Cc1c[nH]c2ccccc12)Nc1ccccc1N1CCNCC1` [CBK028288T] is 98.1%; for `O=C(CCCOc1ccccc1)Nc1cccc(N2CCNCC2)c1` [CBK028290T] it is 95.4%.
On the same count and under the same terms, the figure for `O=C(CCS(=O)(=O)c1ccccc1)NCc1ccccc1OC1CCNC1` (stereo not drawn) [CBK028296T] is 95.9%; for `CN(CC(=O)NCc1ccccc1OC1CCNC1)C(=O)c1ccccc1` (stereo not drawn) [CBK028298T] it is 96.9%.
Regarding `CC(C)(C)CNc1ccc(S(=O)(=O)N2CCOC2=O)cc1` [CBK028347], the viability at 28.5 h, 10 µM was 113%.
Consider `CC1CCN(C(=O)C2CCCCC2C(=O)O)CC1` (stereo not drawn) [CBK028392], for which the viability at 28.5 h, 10 µM stood at 107%.
Consider `COc1ccc(CCCC(=O)Nc2ccc(N3CCNCC3)c3ccccc23)cc1OC` [CBK028406T], for which the viability at 28.5 h, 10 µM was 105%.
As to `O=C(CCS(=O)(=O)c1ccccc1)Nc1ccc(N2CCNCC2)c2ccccc12` [CBK028408T], the viability at 28.5 h, 10 µM was determined as 92.6%.
On the same count and under the same terms, with `O=C(Nc1ccc(N2CCNCC2)c2ccccc12)c1ccccc1` [CBK028412T] the figure was 92.8%.
With `CN(CC(=O)Nc1cc2ccccc2c(N2CCNCC2)n1)C(=O)c1ccccc1` [CBK028421T], the viability at 28.5 h, 10 µM is 93%.
Still for that read-out and setting: with `O=C(COc1ccccc1)NCc1ccc(OC2CCNCC2)cc1` [CBK028425T] the figure was 98.2%; with `O=C(CCCOc1ccccc1)NCc1ccc(OC2CCNCC2)cc1` [CBK028427T], 92.1%; with `Cn1cc(CC(=O)NCc2ccc(OC3CCNCC3)cc2)c2ccccc21` [CBK028430T], 92.8%.
Same read-out and setting: with `S=C(Nc1cccnc1)N[C@H]1CC[C@@]2(c3cccnc3)CCN(Cc3ccccc3)[C@H]2C1` [CBK028450] the figure was 94.8%; with `CC(C)CNC(=S)N[C@H]1CC[C@@]2(c3cccnc3)CCN(Cc3ccccc3)[C@H]2C1` [CBK028460], 125%.
Still for that read-out and setting: the figure for `NCC1CCN(c2cc(C(F)(F)F)c3scc(C(=O)NCCC4=CCCCC4)c3n2)CC1` [CBK028475] is 83.2%.
As to `COc1ccc2sc(C)nc2c1` [CBK028488], the viability at 28.5 h, 10 µM is 101%.
In the case of `COC(=O)CCC1(C)CN(C)CCC1=O` (stereo not drawn) [CBK028494], the viability at 28.5 h, 10 µM is 85%.
For `O=C(c1ccccc1Br)N1CCCCC1` [CBK028504], the viability at 28.5 h, 10 µM was 87.6%.
As to `CC(O)(CC#N)c1ccccc1` (stereo not drawn) [CBK028508], the viability at 28.5 h, 10 µM came out at 114%.
In the case of `N#CC(c1ccc(O)cc1)N1CCCCC1` (stereo not drawn) [CBK028556], the viability at 28.5 h, 10 µM amounted to 94.4%.
`O=C(Nc1ccccc1)Nc1cnns1` [CBK028557]: the viability at 28.5 h, 10 µM (bulk resorufin, single well) was 102%.

Values taken from PMC12040169 (PLOS Biology, 2025).
